Laboratory results taken from patent US12648997B2, “Treatment of infections” (priority 2018, dated 2026).

Key:
[1] = Stability of daptomycin in transient daptomycin-linker hydrogel conjugates versus free daptomycin; format: physicochemical; details: pH 7.4, 37° C, at day seven; peak area ratio at 215 nm
Procedure: The relative stability of the covalently bound daptomycin in the transient daptomycin-linker hydrogel conjugates towards hydrolytic and other degradation pathways in comparison to free daptomycin was investigated. For that purpose, free daptomycin, transient daptomycin-linker HA-conjugate 5 and transient daptomycin-linker PEG-conjugate 9b were incubated at pH 7.4 and 37° C. The supernatants of the carrier samples were exchanged five times within a week and the daptomycin purity in these samples was analyzed by UPLC. In parallel, analytical samples of the free daptomycin control solution were also analyzed by UPLC at the same incubation times. The purity of daptomycin in the samples was calculated as the ratio of the peak area of the intact daptomycin peak at 215 nm relative to the area sum of all daptomycin-related peaks identified at 215 nm.

[2] = tested on: Methicillin-sensitive Staphylococcus aureus (MSSA) MN8 strain biofilms; assay: In vitro biofilm eradication study (Calgary Biofilm Device); format: cell-based; details: TSB with 12 mg/mL BSA and 50 μg/mL calcium, 37° C, OD600
Procedure: This study was performed to investigate the daptomycin concentration required to fully eradicate biofilms when constantly exposed to daptomycin for one or three days. […] Biofilms were grown in tryptic soy broth (TSB) using a Methicillin-sensitive Staphylococcus aureus (MSSA) MN8 strain. Aliquots of a diluted culture of this bacterial strain in TSB, obtained from an inoculum of the respective strain on trypticase soy agar plates (TSA), were transferred to all but the negative control wells of flat-bottom 96-well microtiter plates. The bacterial biofilms were formed by immersing lids with pegs into the 96-well microtiter plates, followed by incubation for 24, 48 and 72 hours at 37° C. The differently aged biofilms were subsequently transferred into new microtiter plates using TSB media with addition of 12 mg/mL bovine serum albumin (BSA) and 50 μg/mL calcium as CaCl2. Daptomycin was added to the media as required to obtain concentrations of 2-1458 μg/mL. The plates were incubated for one or three days at 37° C. The biofilms were detached from the pegs by centrifugation, generating bacterial suspensions in the wells of the microtiter plates. The optical densities of these suspensions were measured (OD600) to determine the biofilm eradication concentrations. All measurements were performed in triplicates.

purity of the free daptomycin in the solution control sample [1]: 72%
SMILES: CCCCCCCCCC(=O)N[C@@H](Cc1c[nH]c2ccccc12)C(=O)N[C@H](CC(N)=O)C(=O)N[C@@H](CC(=O)O)C(=O)N[C@@H]1C(=O)NCC(=O)N[C@@H](CCCN)C(=O)N[C@@H](CC(=O)O)C(=O)N[C@H](C)C(=O)N[C@@H](CC(=O)O)C(=O)NCC(=O)N[C@H](CO)C(=O)N[C@@H]([C@H](C)CC(=O)O)C(=O)N[C@@H](CC(=O)c2ccccc2N)C(=O)O[C@@H]1C [daptomycin]
daptomycin concentration needed to fully eradicate biofilms ([2]; 24 hours exposure, biofilms of all ages (24, 48, 72 h)): 486 µg/mL
daptomycin concentration needed to fully eradicate biofilms ([2]; three days exposure): 162 µg/mL
